The compounds below were run against T1, Cytochrome P450 2C9 (Homo sapiens, UniProt P11712) (assay: Binding affinity to CYP2C9 assessed as spectral dissociation constant).
T1 sequence (P11712 whole entry): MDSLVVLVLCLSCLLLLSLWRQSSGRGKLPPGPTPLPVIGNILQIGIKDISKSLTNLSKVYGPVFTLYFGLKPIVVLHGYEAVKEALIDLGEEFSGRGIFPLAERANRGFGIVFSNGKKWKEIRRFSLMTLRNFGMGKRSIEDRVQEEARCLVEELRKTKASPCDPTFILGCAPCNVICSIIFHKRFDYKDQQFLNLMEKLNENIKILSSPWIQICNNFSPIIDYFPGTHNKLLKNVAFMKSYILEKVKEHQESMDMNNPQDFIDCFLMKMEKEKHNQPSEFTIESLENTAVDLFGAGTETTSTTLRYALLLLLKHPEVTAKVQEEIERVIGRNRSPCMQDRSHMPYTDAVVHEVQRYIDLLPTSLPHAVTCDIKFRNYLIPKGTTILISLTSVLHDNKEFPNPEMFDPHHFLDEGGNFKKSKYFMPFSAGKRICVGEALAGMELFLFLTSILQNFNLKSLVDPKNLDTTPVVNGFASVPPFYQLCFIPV

SMILES	Kd [nM]
O=C(Nc1ccccc1)c1cc(-c2ccncc2)nc2ccccc12	325
O=C(NCc1cccc2ccccc12)c1cc(-c2ccncc2)nc2ccccc12	1280

Each compound was assayed against T1, Cytochrome P450 2C9 (assay: Inhibition of purified CYP2C9).

SMILES	Ki [nM]
O=C(NCc1cccc2ccccc12)c1cc(-c2ccncc2)nc2ccccc12	113

The compounds below were run against T1, Cytochrome P450 2C9 (assay: Inhibition of reconstituted CYP2C9).
Format: ADME

Ki [µM]	SMILES
1.15	O=C(Nc1ccc2ccccc2c1)c1cc(-c2cccnc2)nc2ccccc12
10.7	O=C(Nc1ccc2ccccc2c1)c1cc(-c2ccccn2)nc2ccccc12
3.47	O=C(Nc1ccccc1)c1cc(-c2ccccn2)nc2ccccc12
9.74	O=C(c1cc(-c2cccnc2)nc2ccccc12)N1CCCCC1
4.06	O=C(Nc1ccccc1)c1cc(-c2cccnc2)nc2ccccc12
0.1	O=C(Nc1ccccc1)c1cc(-c2ccncc2)nc2ccccc12
1.25	O=C(Nc1cccc2ccccc12)c1cc(-c2cccnc2)nc2ccccc12
0.033	O=C(Nc1ccc2ccccc2c1)c1cc(-c2ccncc2)nc2ccccc12
9.94	O=C(c1cc(-c2ccncc2)nc2ccccc12)N1CCCCC1
> 43.5	O=C(NCc1cccc2ccccc12)c1cc(-c2ccccn2)nc2ccccc12
24.1	O=C(c1cc(-c2cccnc2)nc2ccccc12)N1CCC(N2CCCC2)CC1
3.67	O=C(c1cc(-c2ccncc2)nc2ccccc12)N1CCC(N2CCCC2)CC1
23.6	O=C(c1cc(-c2ccccn2)nc2ccccc12)N1CCCCC1
76.2	O=C(c1cc(-c2ccccn2)nc2ccccc12)N1CCC(N2CCCC2)CC1
8.55	Cc1cc(C)c2nc(-c3cccnc3)cc(C(=O)Nc3ccc4ccccc4c3)c2c1
> 20.6	Cc1cc(C)c2nc(-c3ccccn3)cc(C(=O)Nc3ccc4ccccc4c3)c2c1

SMILES	Ki [µM]
O=C(NCc1cccc2ccccc12)c1cc(-c2cccnc2)nc2ccccc12	0.152
O=C(Nc1ccc2ccccc2c1)c1cc(-c2cccnc2)nc2ccc(Cl)cc12	1.89
O=C(Nc1ccc2ccccc2c1)c1cc(-c2cccnc2)nc2ccc(Br)cc12	> 37.9
Cc1cc(C)c2nc(-c3ccncc3)cc(C(=O)Nc3ccc4ccccc4c3)c2c1	0.011
O=C(Nc1ccc2ccccc2c1)c1cc(-c2ccncc2)nc2ccc(Br)cc12	0.009
O=C(Nc1ccc2ccccc2c1)c1cc(-c2ccncc2)nc2ccc(Cl)cc12	0.012
O=C(Nc1cccc2ccccc12)c1cc(-c2ccccn2)nc2ccccc12	1.32
O=C(NCc1cccc2ccccc12)c1cc(-c2ccncc2)nc2ccccc12	0.125
